Laboratory results as given in patent US10117873B2, “6-amino-purin-8-one compounds” (GlaxoSmithKline LLC, priority 2008, dated 2018).

How the values were obtained:
IFN-α = assay: Induction of Interferon-α using fresh human PBMCs; type: cell-based; conditions: PBMC, 24 hr incubation, relative to 2 μM resiquimod control, read-out: mean pEC50 for induction of IFN-α (converted)
Procedure: (§1) Assay for the Induction of Interferon-α and TNF-α Using Fresh Human Peripheral Blood Mononuclear Cells (PBMCs)
(§2) Compounds were dissolved and serially diluted in DMSO to give 100× the required concentration range using a Biomek® 2000. 1 ul of test compound was transferred into 96-well tissue culture plates using a Biomek® FX. Each compound was assayed in duplicate for each donor. Each plate contained a dilution series of the TLR7/8 agonist resiquimod as standard and Column 11 contained 1 μl of 200 μM resiquimod (giving a 2 μM final concentration, used to define the approximate maximal response to resiquimod).
(§3) Blood samples from two human donors were collected into sodium heparin (10 U/ml). 25 ml volumes of whole blood were overlaid onto 15 mls Histopaque® in LEUCOSEP™ tubes which were centrifuged at 800 g for 20 min and the band at the plasma/histopaque interface carefully removed. The collected cells were centrifuged at 2500 rpm for 10 min and the pellet resuspended in 10 ml of media (RPMI 1640 (Low endotoxin) supplemented with 10% v/v foetal calf serum (FCS, low endotoxin) 100 U/ml penicillin G, 100 μg/ml streptomycin, 10 mM L-glutamine and 1× non-essential amino acids). A 1:20 dilution of the cells was prepared using trypan blue & the cells counted using a haemocytometer. The PBMCs were diluted to give a final concentration of 2×10^6/ml and 100 ul of this cells suspension was added to wells containing 1 μl of diluted test compound.
(§4) The cell preparations were incubated for 24 hr (37° C., 95% air, 5% CO2) after which a sample of the supernatant was removed using the Biomek® FX and assayed for both IFN-α and TNF-α using the MSD® (Mesoscale Discovery) electrochemiluminescence assay platform. The IFN-α assay was carried out similarly to that described above. The TNF-α assay was carried out as per kit instructions (Cat No K111BHB).
(§5) Cytokine released was expressed as a percentage of the 2 μM resiquimod control (column 11). This percentage was plotted against compound concentration and the pEC50 for the response determined by non-linear least squares curve fitting. For the IFN-α responses generally a 4 parameter logistic model was selected. For the TNF responses where a clear maximum response was obtained (i.e. a well defined plateau in the response was observed) then a 4 parameter model was generally used. If the upper asymptote of the curve wasn't well defined then the curve fitting was generally constrained to a maximal response of 100% (i.e. to the response to 2 μM resiquimod) or to the response of the highest concentration tested if this was greater than the resiquimod response. Some curves were bell shaped for one or both cytokines and the cytokine data on the down slope of the bell shaped response (i.e. concentrations above those giving the maximal response) were generally excluded from the fit, usually with the exception of the concentration immediately above the peak response. Curve fitting thus concentrated on the up slope of the dose response curve.

TNF-α = assay: Induction of TNF-α using fresh human PBMCs; type: cell-based; conditions: PBMC, 24 hr incubation, relative to 2 μM resiquimod control, read-out: mean pEC50 for induction of TNF-α (converted)
Procedure: as §1, §2, §3, §4, §5

Interferon-α [1] = assay: Induction of Interferon-α using cryopreserved human PBMCs; type: cell-based; conditions: PBMC, 24 h incubation, normalized to 1 uM resiquimod, read-out: mean pEC50 for induction of Interferon-α (converted)
Procedure: Assay for the Induction of Interferon-α Using Cryopreserved Human Peripheral Blood Mononuclear Cells (PBMCs)
Compounds were dissolved in DMSO. Serial 2-fold dilutions with DMSO were prepared and 0.25 μl dispensed into 384-well clear Greiner polypropylene plates.
Blood samples of up to 200 ml were obtained from healthy human donors. Whole blood in 25 ml volumes was overlaid onto 15 ml Ficoll® gradients in Leucosep® tubes, and centrifuged at 1000 g for 20 min. Cells in the band at the plasma/Histopaque® interface were carefully removed and washed twice with PBS (centrifuged at 400 g for 5 min to harvest). The final pellet was resuspended in freezing medium (90% Heat-inactivated serum, 10% DMSO) to a cell concentration of 4×10^7 cells/ml. The resuspended cells were then cryopreserved (frozen) using a rate controlled freezer, and stored at −140° C. for up to 4 months.
Immediately prior to assay, vials of cryopreserved (frozen) PBMCs were thawed rapidly in a water bath at 37° C. A 1:10 dilution of the cells in trypan blue was prepared and counted. The PBMCs were then diluted in growth media [RPMI 1640 containing 10% fetal calf serum (invitrogen), Penicillin+[…] (Gibco cat. #25030-024, 1:50), L-Glutamine 2 mM, and 1000 units/ml recombinant human IFN-gamma (Preprotech catalogue #300-02)] to a density of 1×10^6 cells/ml, and 50 ul/well dispensed to 384-well clear Greiner polypropylene plates containing 0.25 μl DMSO or test compound in 0.25 μl DMSO. […] Plates were incubated for 24 h at 37° C. in 5% CO2.
A multi-isoform immunoassay was used to quantify IFN-α in PBMC supernatants. Rabbit polyclonal antibody against human IFN-α (catalogue number 31101, Stratech Scientific) was diluted 1:10000 in assay buffer (RPMI 1640 containing 10% fetal calf serum, Invitrogen) and 20 μl was added to each well of an MSD® (Meso-Scale® Discovery) single small-spot 384-well GAR (goat anti-rabbit antibody coated) plate.
The plate was incubated for 1 h at room temperature with vigorous shaking. Following three washes with PBS, 20 μl of cell supernatant were added to each well of the plate. The plate was then incubated for 1 h at room temperature with vigorous shaking. A pair of monoclonal antibodies to IFN-α (catalogue numbers 21100 and 21112, Stratech Scientific) were labelled with sulfo-TAG (MSD®), diluted 1:1000 in assay buffer and 20 μl added to each well of the plate. The plate was further incubated for 1 h at room temperature with vigorous shaking. Following three washes with PBS, 30 μl of ×2 T buffer (MSD®) was added to each well and the plate was read on an MSD® Sector 6000 plate reader.
Data were normalized to internal plate controls of 1 uM resiquimod (n=16) and DMSO (n=16). pEC50 values were derived by 4-parameter curve fit with IRLS in ActivityBase, from 11-point, two-fold serial dilution of test compounds.

IL-5 = assay: Allergen-driven cytokine assay using fresh human PBMCs from atopic volunteers (IL-5); type: cell-based; conditions: at 0.04 μM, compared to the allergen control; PBMCs from three allergic donors, Timothy Grass antigen
Procedure: (§6) Allergen-Driven Cytokine Assay Using Fresh Human Peripheral Blood Mononuclear Cells (PBMCs) from Atopic Volunteers
(§7) An assay based on co-culture of atopic human donor derived peripheral blood mononuclear cells (PBMCs) with allergen and test compounds was developed. After 5-6 days culture, cell supernatants were assayed for a range of cytokines.
(§8) Each compound was assayed in triplicate at all concentrations.
(§9) Defibrinated human blood from volunteers known to be allergic to Timothy grass was centrifuged at 2500 rpm for 15 minutes. The upper layer of serum was collected and heat-inactivated at 56° C. for 30 minutes (HI-autologous serum). The lower layer of cells was resuspended in 50 ml PBS (+Ca+Mg), 25 ml diluted blood were overlaid onto 20 ml Lymphoprep in 50 ml tubes then centrifuged at 2500 rpm for 20 minutes at RT. The band at the serum/Lymphoprep interface was carefully removed. The collected cells were washed with PBS and re-suspended at 4×10^6/ml in growth medium with HI-autologous serum. PBMCs were seeded at 0.4×10^6 cells/well in flat-bottomed 96 well plates in the presence of 10 ug/ml Timothy Grass antigen (Alk Abello) and test compounds at appropriate concentrations in a total volume of 200 ul.
(§10) Plates were incubated at 37° C. in 5% CO2 for up to 6 days. The cell medium from each well was harvested and stored at −20° C. prior to analysis.

Interferon-α [2] = assay: Induction of Interferon-α following intranasal dosing in the mouse; type: in vivo; conditions: female BALB/c mice, serum 2 hours after dosing, ELISA
Procedure: Assay for the Induction of Interferon-α Following Intranasal Dosing in the Mouse.
Compounds were dissolved in 0.2% Tween™ 80 in saline and administered intranasally (5 μl in total between the nostrils) to female BALB/c mice (n=6) under general anaesthesia. Animals were euthanased 2 hours after dosing and a terminal blood sample was taken and serum levels of Interferon-α measured using an ELISA assay.

IL-13 = assay: Allergen-driven cytokine assay using fresh human PBMCs from atopic volunteers (IL-13); type: cell-based; conditions: at 0.04 μM, compared to the allergen control; PBMCs from three allergic donors, Timothy Grass antigen
Procedure: as §6, §7, §8, §9, §10

SMILES | EC50 (IFN-α) | EC50 (TNF-α) | EC50 (Interferon-α [1]) | reduction of production of Th2 cytokine IL-5 (IL-5) | mean serum levels of Interferon-α (Interferon-α [2]) | reduction of production of Th2 cytokine IL-13 (IL-13)
CCCCOc1nc(N)c2[nH]c(=O)n(CCCCCCN3CCCCCC3)c2n1 [Example 15, 6-Amino-2-(butyloxy)-9-[6-(hexahydro-1H-azepin-1-yl)hexyl]-7,9-dihydro-8H-purin-8-one] | ≤ 1 nM | ≥ 316 nM | < 3160 nM | – | – | –
CCCCOc1nc(N)c2[nH]c(=O)n(CCCCCCN3CCCCC3)c2n1 [Example 14, 6-Amino-2-(butyloxy)-9-[6-(1-piperidinyl)hexyl]-7,9-dihydro-8H-purin-8-one] | ≤ 10 nM | > 1000 nM | < 3160 nM | – | – | –
CCC[C@H](C)Oc1nc(N)c2[nH]c(=O)n(CCCCCN3CCCCC3)c2n1 [Example 22, 6-Amino-2-{[(1S)-1-methylbutyl]oxy}-9-[5-(1-piperidinyl)pentyl]-7,9-dihydro-8H-purin-8-one] | ≤ 1 nM | ≥ 316 nM | < 3160 nM | ≥ 50% | 21029 pg/mL | ≥ 50%
CCCCOc1nc(N)c2[nH]c(=O)n(CCCCCN3CCCCCCC3)c2n1 [Example 12, 6-Amino-2-(butyloxy)-9-[5-(hexahydro-1(2H)-azocinyl)pentyl]-7,9-dihydro-8H-purin-8-one] | ≤ 10 nM | > 1000 nM | < 3160 nM | – | – | –
CCCCOc1nc(N)c2[nH]c(=O)n(CCCCCN3CCCC3)c2n1 [Example 9, 6-Amino-2-(butyloxy)-9-[5-(1-pyrrolidinyl)pentyl]-7,9-dihydro-8H-purin-8-one] | < 31.6 nM | > 3160 nM | < 3160 nM | – | – | –
CCC[C@H](C)Oc1nc(N)c2[nH]c(=O)n(CCCCN3CCCCCC3)c2n1 [Example 21, 6-Amino-9-[4-(hexahydro-1H-azepin-1-yl)butyl]-2-{[(1S)-1-methylbutyl]oxy}-7,9-dihydro-8H-purin-8-one] | ≤ 1 nM | ≥ 316 nM | < 3160 nM | – | 20326 pg/mL | –
CCCCOc1nc(N)c2[nH]c(=O)n(CCCCCCN3CCCC3)c2n1 [Example 13, 6-Amino-2-(butyloxy)-9-[6-(1-pyrrolidinyl)hexyl]-7,9-dihydro-8H-purin-8-one] | ≤ 1 nM | ≥ 316 nM | < 3160 nM | – | – | –
CCCCOc1nc(N)c2[nH]c(=O)n(CCCCCN3CCCCCC3)c2n1 [Example 11, 6-Amino-2-(butyloxy)-9-[5-(hexahydro-1H-azepin-1-yl)pentyl]-7,9-dihydro-8H-purin-8-one] | ≤ 10 nM | > 1000 nM | < 3160 nM | – | – | –
CCC[C@H](C)Oc1nc(N)c2[nH]c(=O)n(CCCCCN3CCCCCC3)c2n1 [Example 23, 6-Amino-9-[5-(hexahydro-1H-azepin-1-yl)pentyl]-2-{[(1S)-1-methylbutyl]oxy}-7,9-dihydro-8H-purin-8-one] | ≤ 1 nM | ≥ 316 nM | < 3160 nM | – | – | –
CCCCNc1nc(N)c2[nH]c(=O)n(CCCCN3CCCCCC3)c2n1 [Example 18, 6-Amino-2-(butylamino)-9-[4-(hexahydro-1H-azepin-1-yl)butyl]-7,9-dihydro-8H-purin-8-one] | ≤ 10 nM | > 1000 nM | < 3160 nM | – | – | –
